Laboratory results as given in paper PMC5449446, “Metabolic Value Chemoattractants Are Preferentially Recognized at Broad Ligand Range Chemoreceptor of Pseudomonas putida KT2440” (Frontiers in Microbiology, 2017).

molecular target: T1, PcaY_PP-LBD (Pseudomonas putida, UniProt Q88JK6); test: biochemical; format: binding, Pseudomonas putida KT2440; settings: ITC at 25°C, 25 μM protein, One Binding Site model; means and SD of three experiments
T1 construct: His-tag (from the pET28b vector; inferred from NdeI/BamHI cloning and HisTrap purification) (N); made in house; host or cells: Escherichia coli BL21 (DE3)
T1 sequence (Q88JK6 44-196): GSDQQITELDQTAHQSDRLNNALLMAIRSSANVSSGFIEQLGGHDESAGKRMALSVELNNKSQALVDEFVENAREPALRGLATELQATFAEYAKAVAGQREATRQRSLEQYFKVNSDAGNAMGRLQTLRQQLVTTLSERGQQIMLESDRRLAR
Method: Experiments were carried out at 25°C using a VP-ITC titration calorimeter (Microcal Inc., Northampton, Massachusetts). […] Obtained data were corrected with the heat changes measured for the injection of ligand into buffer. Data were normalized with the protein concentration (Bradford assay) and fitted with the “One Binding Site” model of the MicroCal version of the ORIGIN 7.0 software (OriginLab Corporation, Northampton, MA, United States), leaving all parameters floating.

With O=Cc1ccc(O)cc1 [4-Hbenzaldehyde, 4-hydroxybenzaldehyde] the KD was “No Binding”.

same assay, conditions: ITC at 25°C, 25 μM protein, One Binding Site model; means and SD of three experiments; listed as 4-hydroxybenzaldehyde

For O=Cc1ccc(O)cc1 [4-Hbenzaldehyde, 4-hydroxybenzaldehyde], the KD was “devoid of binding”.

molecular target: McpP; test: not given; parameters: method as in ref (6) (a number printed in a supplementary file, which may have a reference list of its own: not looked up in the article's list); settings: ITC, purified recombinant LBD; ref (6); cited from earlier work

Point of comparison: CCC(=O)O [Propionate], Kd 34 µM. Against it:
- C[C@H](O)C(=O)O [L-lactate] — 3.1-fold higher, 107 µM
- CC(=O)C(=O)O [Pyruvate] — within 1.5-fold, 39 µM

molecular target: McpH; test: not given; parameters: method as in ref (2) (a number printed in a supplementary file, which may have a reference list of its own: not looked up in the article's list); settings: ITC, purified recombinant LBD; ref (2); cited from earlier work

Point of comparison: Nc1nc2nc[nH]c2c(=O)[nH]1 [Guanine], Kd 4.3 µM. Against it:
- O=c1[nH]c(=O)c2[nH]c(=O)[nH]c2[nH]1 [Uric acid] — 3.3-fold lower, 1.3 µM
- c1ncc2nc[nH]c2n1 [Purine] — 1.8-fold lower, 2.4 µM
- O=c1[nH]cnc2nc[nH]c12 [Hypoxanthine] — within 1.5-fold, 3.3 µM
- O=c1[nH]c(=O)c2nc[nH]c2[nH]1 [Xanthine] — 1.6-fold lower, 2.7 µM
- Nc1ncnc2[nH]cnc12 [Adenine] — 1.8-fold lower, 2.4 µM

molecular target: McpU; test: not given; parameters: method as in ref (3) (a number printed in a supplementary file, which may have a reference list of its own: not looked up in the article's list); settings: ITC, purified recombinant LBD; ref (3); cited from earlier work

Point of comparison: NCCCCN [Putrescine], Kd 2 µM. Against it:
- NCCCCCN [Cadaverine] — 11-fold higher, 22 µM
- NCCCCNCCCN [Spermidine] — 2.2-fold higher, 4.5 µM

molecular target: McpA; test: not given; parameters: method as in ref (3) (a number printed in a supplementary file, which may have a reference list of its own: not looked up in the article's list); settings: ITC, purified recombinant LBD; ref (3); cited from earlier work

Point of comparison: N[C@@H](Cc1ccccc1)C(=O)O [L-Phe], Kd 2.3 µM. Against it:
- N[C@@H](Cc1ccc(O)cc1)C(=O)O [L-Tyr] — 5.3-fold higher, 12.1 µM
- CSCC[C@H](N)C(=O)O [L-Met] — 2.5-fold higher, 5.8 µM
- NC(=O)CC[C@H](N)C(=O)O [L-Gln] — 2.4-fold higher, 5.5 µM
- N[C@@H](CS)C(=O)O [L-Cys] — 3.8-fold lower, 0.6 µM
- N[C@@H](CO)C(=O)O [L-Ser] — 19-fold higher, 43 µM
- C[C@H](N)C(=O)O [L-Ala] — 5.7-fold higher, 13 µM
- NCC(=O)O [Gly] — 15-fold higher, 35 µM
- NC(=O)C[C@H](N)C(=O)O [L-Asn] — 1.9-fold higher, 4.3 µM
- CC(C)[C@H](N)C(=O)O [L-Val] — 160-fold higher, 373 µM
- CC[C@H](C)[C@H](N)C(=O)O [L-Ile] — 37-fold higher, 85 µM
- N=C(N)NCCC[C@H](N)C(=O)O [L-Arg] — 1.9-fold lower, 1.2 µM
